Reference: article PMC3161034 (BMC Cancer, 2011)
Like-named read-outs stand apart in the source and are kept apart here.

Experiments:
[1] = test system: patients with solid tumors
Description: The safety endpoint was the incidence of adverse events. Tumor response rate, as assessed by Response Evaluation Criteria in Solid Tumors (RECIST) in patients with measurable disease, was an exploratory endpoint.
Enrollment of a minimum of six evaluable patients per cohort was planned. If patients discontinued the study before week 5 for any reason other than a DLT, additional patients could be enrolled to meet this goal. The selected motesanib doses (50 mg QD, 100 mg QD, 125 mg QD, and 75 mg BID) were based on the tolerability profiles of motesanib administered as monotherapy and in combination with gemcitabine that were obtained in previous studies. The BID dosing regimen is expected to achieve higher predose motesanib concentrations in the plasma than QD dosing owing to the higher total dose administered and more frequent dosing.
Treatment continued until the end of week 48 (11 cycles), or until disease progression, death, or unacceptable toxicity occurred. Motesanib administration (in cohorts 1-4) began on day 2 of week 2 of the first cycle and continued throughout the study. Patients experiencing continuous clinical benefit (stable disease or response) at the end of 48 weeks were eligible to continue motesanib monotherapy under a separate protocol.
Patients enrolled in cohort 1 received an initial dose of motesanib of 50 mg QD. If ≤ 2 patients experienced a DLT during the first 5 weeks of treatment, enrollment into cohort 2 (motesanib 75 mg BID) and cohort 3 (motesanib 125 mg QD) began simultaneously. If ≤ 2 patients in cohort 3 experienced a DLT in the first 5 weeks of treatment, the 125-mg QD dose would be considered the target once-daily dose.
All adverse events were graded by the investigator according to National Cancer Institute Common Terminology Criteria for Adverse Events (CTCAE) version 3.0. All adverse events were classified according to relatedness to treatment and seriousness. […]

[2] = test system: patients with advanced solid tumors; set-up: method as in PMID 17557949; conditions: monotherapy; cited from earlier work
[3] = test system: cytochrome P450 (CYP) 3A4; conditions: cited from earlier work
CYP1A2 = conditions: cited from earlier work

CC1(C)CNc2cc(NC(=O)c3cccnc3NCc3ccncc3)ccc21 [motesanib]
Patients with dose-limiting toxicities, all cohorts ([1]; human, in vivo, 5 weeks): 11 patients
Maximum tolerated dose (MTD) ([1]; in combination with erlotinib only (150 mg QD)): 125 mg QD
Maximum tolerated dose (MTD) ([1]; in combination with gemcitabine (1000 mg/m^2 weekly) and erlotinib (100 mg QD)): 100 mg QD
Maximum tolerated dose (MTD) [2]: 125 mg QD
Effect on CYP3A4 [3]: inhibitor
Effect on CYP1A2 (CYP1A2): inducer
